Reference: the supplement of paper PMC11451515

What was measured:
Conditions in all cases: 48 h
SEM cells [1] = experiment: cell viability relative to DMSO control; higher = less cytotoxic
Method in brief: (§1)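 Leukemia cells (NOMO1 or SEM, 500 cells/well; P12-Ichikawa, 1000 cells/well) were seeded in 5 μl in 1536-well plates after at least four passages of adaptation to each medium. They received library compounds in DMSO by pin dosing, 11 threefold points from 47 μM to 0.79 nM. Luminescence with CellTiter-Glo One was read after 48 h at 37°C. Viability is stated per plate relative to DMSO wells, with cell-free wells as background.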

NOMO1 [2] = experiment: as above
Method in brief: as §1

P12-Ichikawa [3] = experiment: as above
Method in brief: as §1

SEM cells [4] = experiment: AUC of viability dose-response curve (% viability x log10 dose units); higher = less sensitive
Method in brief: (§2)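 Seeding of medium-adapted leukemia cells was at 500 or 1000 cells/well in 1536-well plates, followed by 48 h at 37°C with library compounds in DMSO at 11 threefold doses from 47 μM to 0.79 nM. CellTiter-Glo One luminescence was normalised per plate to DMSO and cell-free wells and fitted as a four-parameter log-logistic function of log10 dose. Area under the curve was integrated by trapezoidal rule, with curves exceeding full viability scaled and curves failing quality control removed.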

NOMO1 [5] = experiment: as above
Method in brief: as §2

P12-Ichikawa [6] = experiment: as above
Method in brief: as §2

O=C(NOCC1CC1)c1ccc(F)c(F)c1Nc1ccc(I)cc1Cl
cell viability [%]
Conditions	NOMO1 [2]	P12-Ichikawa [3]	SEM cells [1]
HPLM + 10% dialyzed FBS, 0.000781 µM	97.2	92.8	91
HPLM + 10% dialyzed FBS, 0.00234 µM	109	98	87.8
HPLM + 10% dialyzed FBS, 0.00702 µM	123	104	109
HPLM + 10% dialyzed FBS, 0.0211 µM	115	110	113
HPLM + 10% dialyzed FBS, 0.0632 µM	99.1	114	99.7
HPLM + 10% dialyzed FBS, 0.19 µM	91.7	106	99.5
HPLM + 10% dialyzed FBS, 0.569 µM	74.7	101	113
HPLM + 10% dialyzed FBS, 1.71 µM	68.5	94.8	116
HPLM + 10% dialyzed FBS, 5.12 µM	52	84.3	95.8
HPLM + 10% dialyzed FBS, 15.4 µM	49.3	82.2	75.5
HPLM + 10% dialyzed FBS, 46.1 µM	41.4	79.3	77.1
RPMI 5 mM glucose + 10% FBS, 0.000781 µM	84.5	96.6	95.8
RPMI 5 mM glucose + 10% FBS, 0.00234 µM	91.6	102	93.7
RPMI 5 mM glucose + 10% FBS, 0.00702 µM	100	105	112
RPMI 5 mM glucose + 10% FBS, 0.0211 µM	112	103	108
RPMI 5 mM glucose + 10% FBS, 0.0632 µM	95.1	110	94.7
RPMI 5 mM glucose + 10% FBS, 0.19 µM	93.8	98	93.8
RPMI 5 mM glucose + 10% FBS, 0.569 µM	73.5	97.1	106
RPMI 5 mM glucose + 10% FBS, 1.71 µM	83.5	88.7	94.2
RPMI 5 mM glucose + 10% FBS, 5.12 µM	56.9	74	85.5
RPMI 5 mM glucose + 10% FBS, 15.4 µM	46.9	60.9	67.3
RPMI 5 mM glucose + 10% FBS, 46.1 µM	50	70	53.1
RPMI 5 mM glucose + 10% dialyzed FBS, 0.000781 µM	95.7	92.9	101
RPMI 5 mM glucose + 10% dialyzed FBS, 0.00234 µM	108	106	89.9
RPMI 5 mM glucose + 10% dialyzed FBS, 0.00702 µM	97.2	98	115
RPMI 5 mM glucose + 10% dialyzed FBS, 0.0211 µM	107	112	104
RPMI 5 mM glucose + 10% dialyzed FBS, 0.0632 µM	92.4	109	102
RPMI 5 mM glucose + 10% dialyzed FBS, 0.19 µM	86.8	114	78.2
RPMI 5 mM glucose + 10% dialyzed FBS, 0.569 µM	82.1	110	103
RPMI 5 mM glucose + 10% dialyzed FBS, 1.71 µM	75.6	112	89.6
RPMI 5 mM glucose + 10% dialyzed FBS, 5.12 µM	44.2	91.8	84.8
RPMI 5 mM glucose + 10% dialyzed FBS, 15.4 µM	42.8	71	59.7
RPMI 5 mM glucose + 10% dialyzed FBS, 46.1 µM	44.4	82.6	59.7

AUC of viability dose-response curve
Conditions	NOMO1 [5]	P12-Ichikawa [6]	SEM cells [4]
HPLM + 10% dialyzed FBS	362	447	455
RPMI 5 mM glucose + 10% FBS	389	429	440
RPMI 5 mM glucose + 10% dialyzed FBS	382	450	434
